Columns and labels:
[1] = target: T1, Dopa decarboxylase (Aromatic L-amino acid decarboxylase), isoform CRA_a (Homo sapiens, UniProt Q53Y41); test: DDC-MDH-PEPC-Linked assay; settings: pH 8.05; 37 °C
T1 sequence (Q53Y41 whole entry): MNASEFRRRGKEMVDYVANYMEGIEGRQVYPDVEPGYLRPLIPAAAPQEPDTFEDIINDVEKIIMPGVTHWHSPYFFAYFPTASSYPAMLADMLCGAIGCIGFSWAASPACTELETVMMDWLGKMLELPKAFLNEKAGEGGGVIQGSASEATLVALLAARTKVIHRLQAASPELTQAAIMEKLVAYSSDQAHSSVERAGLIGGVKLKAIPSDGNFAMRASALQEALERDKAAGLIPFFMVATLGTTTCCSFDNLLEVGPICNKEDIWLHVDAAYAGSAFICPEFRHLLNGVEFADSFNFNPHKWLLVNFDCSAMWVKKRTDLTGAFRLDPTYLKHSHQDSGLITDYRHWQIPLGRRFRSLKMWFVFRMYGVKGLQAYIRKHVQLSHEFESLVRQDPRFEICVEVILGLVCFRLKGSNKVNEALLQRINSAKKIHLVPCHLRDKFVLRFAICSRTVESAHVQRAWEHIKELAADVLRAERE
Procedure: To the wells of a 384-well polypropylene plate, 1 µL DMSO (control) or test compounds at indicated concentrations were added, followed by the addition of 24.5 µL enzyme mix [50 mM Tris-HCl, 50 mM NaCl, 0.015% (w/v) BSA, 5 mM MgCl2, 2 mM β-mercaptoethanol, 760 µM NADH, 330 nM PEPC, 100 µM PLP and 284 nM hDDC, pH 8.05], and 24.5 µL substrate mix [50 mM Tris-HCl containing 50 mM NaCl, 0.015% (w/v) BSA, 5 mM MgCl2, 2 mM β-mercaptoethanol, 10 mM PPPA, 0.49 U MDH and 1.5 mM L-DOPA, pH 8.05]. The plate was sealed and incubated for 1 h in 37 °C. The OD was taken at 340 nm.

[2] = target: Cystathionine gamma-lyase (Homo sapiens, UniProt P32929); test: Human CSE enzyme assay; settings: pH 7; 37 °C
Chain of Cystathionine gamma-lyase (P32929 whole entry): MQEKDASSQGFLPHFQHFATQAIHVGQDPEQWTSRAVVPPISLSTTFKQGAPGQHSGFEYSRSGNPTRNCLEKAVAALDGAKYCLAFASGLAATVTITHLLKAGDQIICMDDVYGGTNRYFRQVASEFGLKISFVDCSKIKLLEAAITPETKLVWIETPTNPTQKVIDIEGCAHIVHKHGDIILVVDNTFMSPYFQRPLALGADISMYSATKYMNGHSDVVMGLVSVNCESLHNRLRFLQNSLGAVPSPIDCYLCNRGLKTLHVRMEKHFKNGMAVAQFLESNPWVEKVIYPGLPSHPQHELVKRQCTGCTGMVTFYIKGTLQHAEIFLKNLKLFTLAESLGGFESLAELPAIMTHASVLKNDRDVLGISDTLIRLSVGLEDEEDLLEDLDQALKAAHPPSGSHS
Procedure: 500 nM hCSE in optimal buffer (50 mM Hepes, pH 7.0; final concentration) was incubated with compound for 45 min in the 192-tandem-well plate before adding substrate (5 mM L-cysteine; final concentration). The reaction was then incubated at 37 °C for 60 min before the absorbance at 413 nm of DTNB was measured.

| SMILES | IC50 [1] [µM] | IC50 [2] [µM] |
| --- | --- | --- |
| COc1cc(CC=C(c2cc(O)c(OC)cc2O)c2c(OC)cc3c(c2O)CCC(c2ccc(O)c(O)c2)O3)ccc1O (stereo not drawn) [(+)-Euonyquinone C (9)] | 100 | > 200 |
| COc1cc(CC=C(c2cc(O)c(OC)cc2O)c2cc(CCCc3ccc(O)c(OC)c3)c(O)cc2OC)ccc1O [Combrequinone B (6)] | 21.6 | > 200 |
| COc1cc(CCCc2cc(C(CCc3ccc(O)c(OC)c3)c3cc(OC)c(OC)cc3O)c(OC)cc2O)ccc1O (stereo not drawn) [Euonydiarylpropane A (1)] | 100 | > 200 |
| COc1cc(CCCc2cc(C(CCc3ccc(O)c(OC)c3)c3cc(OC)c(OC)cc3O)c(O)cc2OC)ccc1O (stereo not drawn) [Euonydiarylpropane B (2)] | 100 | > 200 |
| COc1ccc(C(CCc2ccc(O)c(OC)c2)c2cc(CCCc3ccc(O)c(OC)c3)c(O)cc2OC)c(O)c1 (stereo not drawn) [Euonydiarylpropane C (3)] | > 200 | > 200 |
| COc1cc(CCCc2cc(C(CCc3ccc(O)c(OC)c3)c3cc(O)c(OC)cc3OC)c(O)cc2OC)ccc1O (stereo not drawn) [Euonydiarylpropane D (4)] | > 200 | > 200 |
| COC1=CC(=O)C(CC(=O)Cc2ccc(O)c(OC)c2)=C(c2cc(CCCc3ccc(O)c(OC)c3)c(OC)cc2O)C1=O [Euonyquinone A (5)] | 11.5 | > 200 |
| COc1cc(CC=C(c2cc(O)c(OC)cc2O)c2c(OC)cc3c(c2O)CCC(c2ccc(O)c(OC)c2)O3)ccc1O (stereo not drawn) [Euonyquinone B (7)] | 50 | > 200 |

The next lines start with the values.

| IC50 [1] [µM] | IC50 [2] [µM] | SMILES |
| --- | --- | --- |
| > 200 | > 200 | COc1ccc(CCCc2ccc(O)c(OC)c2)c(O)c1 [1-(2-hydroxy-4-meth-oxyphenyl)-3-(4-hydroxy-3-methoxyphenyl)propane (12)] |
| > 200 | > 200 | COc1cc(OC)c2c(c1)O[C@@H](c1ccc(O)c(O)c1)CC2 [(2R)-3′,4′-Dihydroxy-5,7-methoxyflavan (14)] |
| > 200 | > 200 | COc1ccc2c(c1)O[C@@H](c1ccc(O)c(O)c1)CC2 [(2R)-3′,4′-Dihydroxy-7-methoxyflavan (13)] |
| > 200 | > 200 | COc1cc(CCCc2ccc(OC)c(O)c2OC)ccc1O [Broussonin F (11)] |
| > 200 | > 200 | COc1cc(CCCc2ccc(O)cc2OC)ccc1O [Griffithane B (10)] |
| 1200 | 3000 | C[C@](N)(Cc1ccc(O)c(O)c1)C(=O)O [SMR000059170] |

— BindingDB's records for doi:10.1021/cb500009r (Shanghai Center For Systems Biomedicine, 2014)
